Assay results taken from patent US20040091937A1, “Use of fluorine NMR for high throughput screening” (priority 2002, published 2004).
“And” between values parts separate entries of the source, which are not always exact repeats. Equal entries are not always repeated. Structures can show the parent of a compound that is named as a salt. Blank lines part the entries; values can stand above or below the molecule they belong to.

Tests used:
PAK4 = target: T1, PAK4 (Homo sapiens, UniProt O96013); experiment: 19F NMR binding and competition binding screening and deconvolution against p21-activated kinase; conditions: 15 μM TFA, 1.5 μM protein
T1 construct: GST (cleaved yes); made in house; host or cells: E. coli
T1 sequence (O96013 321-572 limits assumed, species assumed): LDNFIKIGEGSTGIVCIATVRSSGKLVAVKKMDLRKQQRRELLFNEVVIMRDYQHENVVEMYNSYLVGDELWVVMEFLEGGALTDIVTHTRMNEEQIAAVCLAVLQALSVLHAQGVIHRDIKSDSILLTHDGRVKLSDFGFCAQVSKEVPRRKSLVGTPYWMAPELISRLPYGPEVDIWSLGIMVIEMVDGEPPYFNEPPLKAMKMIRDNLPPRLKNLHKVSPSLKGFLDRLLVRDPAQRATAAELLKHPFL
Protocol: (§1) D2O was added to the solution (8% final concentration) for the lock signal.
The signal of the non-interacting molecule represents an internal reference that can be used for calibrating with a single experiment the changes in the signal of the spy molecule. […] It should be noted that some compounds in the screening may contain traces of TFA.

human serum albumin [1] = target: T2, human serum albumin (Homo sapiens, UniProt P02768); experiment: 19F NMR spin-echo competition binding screening against HSA with spy molecule (3) and control molecule (2)
T2 sequence (P02768 25-609): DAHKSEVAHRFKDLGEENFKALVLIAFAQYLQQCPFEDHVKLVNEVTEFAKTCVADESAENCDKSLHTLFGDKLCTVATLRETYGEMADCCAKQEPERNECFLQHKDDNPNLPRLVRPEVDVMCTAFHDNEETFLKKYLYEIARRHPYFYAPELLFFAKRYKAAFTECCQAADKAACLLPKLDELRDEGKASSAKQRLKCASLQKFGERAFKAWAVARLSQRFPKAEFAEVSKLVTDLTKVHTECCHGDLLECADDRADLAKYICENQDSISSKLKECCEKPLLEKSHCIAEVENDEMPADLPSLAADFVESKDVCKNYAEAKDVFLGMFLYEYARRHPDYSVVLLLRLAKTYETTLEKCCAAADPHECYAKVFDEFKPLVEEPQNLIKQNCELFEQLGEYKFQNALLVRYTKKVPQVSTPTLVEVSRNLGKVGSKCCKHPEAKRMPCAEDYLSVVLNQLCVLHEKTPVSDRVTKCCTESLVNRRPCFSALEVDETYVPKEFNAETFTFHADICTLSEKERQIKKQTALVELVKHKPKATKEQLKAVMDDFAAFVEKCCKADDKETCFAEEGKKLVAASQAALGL
Protocol: as §1
A dual coil {^19F}-{^1H} probe was used with the inner coil tuned to ^19F and the outer coil tuned to ^1H frequency. […] These signals are broad and therefore are not visible in the spectra of the reference and control molecule recorded with a spin-echo scheme. All the spectra were recorded with a weak Waltz-16 proton decoupling applied during the acquisition period. Typically 4-8 dummy scans were recorded for temperature equilibration. Carr-Purcell-Meibom-Gill schemes of different length and long 2τ interval were used before the acquisition period. Chemical shifts were referenced to trifluoroacetic acid.
These techniques also provide the number of binding sites (n) for the reference molecule a parameter that is very important for the competition binding experiments.
For screening, a total spin-echo period (2nτ) was selected for which the signal of the reference molecule is approaching zero.

human serum albumin [2] = target: T2, human serum albumin; experiment: Isothermal titration calorimetry with HSA; format: binding; parameters: purchased Sigma A-3782
Protocol: Isothermal titration calorimetry experiments were performed using an OMEGA titrating microcalorimeter from Microcal, Inc. (Northampton, Mass.). The titrating microcalorimeter consisted of a sample and reference cell held in an adiabatic enclosure. The reference cell was filled with PBS. […] Analyte at 0.8 mM in the same buffer was held in a 250 μL syringe. Thirty injections (8 μL each and 12 seconds/injection) of analyte were made by a computer controlled stepper motor into the sample cell held at 25° C. The syringe stir rate was 400 rpm. Heat adsorbed or released with each injection was measured by a thermoelectric device connected to a Microcal nanovolt preamplifier. Titration isotherms for the binding interactions were comprised of the differential heat flow for each injection. Heat of dilution obtained by injecting analyte into PBS was negligible. Binding isotherms were fit to a single binding site model (T. Wiseman et al., Anal. Biochem., 179, 131-137 (1989)) using an iterative nonlinear least-squares algorithm included with the instrument.

Compound: O=C(O)C(F)(F)F [trifluoroacetic acid (TFA), trifluoroacetic acid]
- interaction with the protein (19F spectra in absence and presence of protein) (PAK4): non-interacting

Compound: Cc1ccc2[nH]cc(CC(N)C(=O)O)c2c1 (centres unmarked) [5-CH3 D,L Trp]
- effect on the 19F signal of the spy molecule (3) (displacement from HSA) (human serum albumin [1]; 600 nM HSA, 50 μM (3), 25 μM (2), 50 μM 5-CH3 D,L Trp and sucrose, 25 μM (4)): do not alter the spectrum of the spy molecule

- Kd (human serum albumin [2]; HSA in PBS + 2% DMSO, 25° C., single binding site model, read-out: ITC derived KD): 41 ± 3.3 µM
- Kd (human serum albumin [1]; KD^app, apparent KD of (3), 50 μM, with 25 μM (4) and 0.6 μM HSA): 327 µM and 300 µM
Compound: O=C(O)c1cccc(F)c1O [(3), 2-hydroxy 3-fluorobenzoic acid]

Compound: FC(F)(F)c1nnc(N2CCNCC2)s1 [(2), 1-[5-(trifluoromethyl)1,3,4-thiadiazol-2-yl]piperazine]
- evidence of binding to HSA by ITC (human serum albumin [2]; 8 μL injections of 800 μM into 30 μM HSA): did not find any evidence of binding to HSA
